US8658646B2, “Pyrrolopyrazine kinase inhibitors” (Hoffmann-LaRoche Inc., priority 2011, dated 2014)
Structures can show the parent of a compound that is named as a salt.

These compounds were tested against T1, recombinant human SYK360-635 (Homo sapiens, UniProt P43405) (assay: Determination of IC50 of Spleen Tyrosine Kinase (SYK) inhibition, 33P ATP filtration assay). Conditions: SYK aa 360-635 0.5 nM; ATP 20 μM, peptide 5 μM, 0.1% BSA; read-out: SYK_ENZYME_FILTRATION/v1, BSA.
T1 construct: made in house
Assay type: biochemical

Row | Structure (SMILES) | IC50 [µM]
1 | CC(C)(C)NC(=O)c1c[nH]c2ncc(-c3nn(CC4CN(Cc5ccccc5)CCO4)c4ccc(OC(F)F)cc34)nc12 (centres unmarked) [Example I-340, 2-[1-(4-Benzyl-morpholin-2-ylmethyl)-5-difluoromethoxy-1H-indazol-3-yl]-5H-pyrrolo[2,3-b]pyrazine-7-carboxylic acid tert-butylamide] | 0.295
2 | Cn1nc(-c2cnc3[nH]cc(C(=O)N[C@@H]4CCC[C@H](N)C4)c3n2)c2ccc(Cl)cc21 (relative stereo) [Example I-277, 2-(6-Chloro-1-methyl-1H-indazol-3-yl)-5H-pyrrolo[2,3-b]pyrazine-7-carboxylic acid (cis-3-amino-cyclohexyl)-amide] | 0.04
3 | NC(=O)c1c[nH]c2ncc(-c3nn(CC(=O)N4CCOCC4)c4cc(F)ccc34)nc12 [Example I-314, 2-[6-Fluoro-1-(2-morpholin-4-yl-2-oxo-ethyl)-1H-indazol-3-yl]-5H-pyrrolo[2,3-b]pyrazine-7-carboxylic acid amide] | 0.155
4 | C[C@@H](NC(=O)c1c[nH]c2ncc(-c3cn(C)c4cc(Cl)ccc34)nc12)C(=O)N1CC(C#N)C1 [Example I-29, 2-(6-Chloro-1-methyl-1H-indol-3-yl)-5H-pyrrolo[2,3-b]pyrazine-7-carboxylic acid [(R)-2-(3-cyano-azetidin-1-yl)-1-methyl-2-oxo-ethyl]-amide] | 0.0041
5 | CC(C)(C)NC(=O)c1c[nH]c2ncc(-c3nn(CCCN4CC(O)C4)c4ccc(OC(F)F)cc34)nc12 [Example I-300, 2-{5-Difluoromethoxy-1-[3-(3-hydroxy-azetidin-1-yl)-propyl]-1H-indazol-3-yl}-5H-pyrrolo[2,3-b]pyrazine-7-carboxylic acid tert-butylamide] | 0.0031
6 | CC(C)(C)NC(=O)c1c[nH]c2ncc(-c3nn(CC4CC4)c4ccc(OC(F)F)cc34)nc12 [Example I-351, 2-(1-Cyclopropylmethyl-5-difluoromethoxy-1H-indazol-3-yl)-5H-pyrrolo[2,3-b]pyrazine-7-carboxylic acid tert-butylamide] | 0.0185
7 | CC(C)NC(=O)c1c[nH]c2ncc(-c3nn(C)c4ccc(C5CC5)cc34)nc12 [Example I-195, 2-(5-Cyclopropyl-1-methyl-1H-indazol-3-yl)-5H-pyrrolo[2,3-b]pyrazine-7-carboxylic acid isopropylamide] | 0.012
8 | CC(C)NC(=O)c1c[nH]c2ncc(-c3nn(C)c4ccc(O)cc34)nc12 [Example I-65, 2-(5-Hydroxy-1-methyl-1H-indazol-3-yl)-5H-pyrrolo[2,3-b]pyrazine-7-carboxylic acid isopropylamide] | 0.0058
9 | CC(C)(C)NC(=O)c1c[nH]c2ncc(-c3nn(CCCC(=O)O)c4ccc(OC(F)F)cc34)nc12 [Example I-262, 4-[3-(7-tert-Butylcarbamoyl-5H-pyrrolo[2,3-b]pyrazin-2-yl)-5-difluoromethoxy-indazol-1-yl]-butyric acid] | 0.00275
10 | Cn1nc(-c2cnc3[nH]cc(C(=O)NC(C)(C)CO)c3n2)c2cc(C3CC3)ccc21 [Example I-196, 2-(5-Cyclopropyl-1-methyl-1H-indazol-3-yl)-5H-pyrrolo[2,3-b]pyrazine-7-carboxylic acid (2-hydroxy-1,1-dimethyl-ethyl)-amide] | 0.008
11 | CC(C)NC(=O)c1c[nH]c2ncc(-c3n[nH]c4cc(Cl)ccc34)nc12 [Example I-306, 2-(6-Chloro-1H-indazol-3-yl)-5H-pyrrolo[2,3-b]pyrazine-7-carboxylic acid isopropylamide] | 0.00725
12 | CNC(=O)Cn1nc(-c2cnc3[nH]cc(C(=O)NC(C)(C)C)c3n2)c2cc(OC(F)F)ccc21 [Example I-354, 2-(5-Difluoromethoxy-1-methylcarbamoylmethyl-1H-indazol-3-yl)-5H-pyrrolo[2,3-b]pyrazine-7-carboxylic acid tert-butylamide] | 0.0144
13 | Cn1nc(-c2cnc3[nH]cc(C(=O)NC(C)(C)C)c3n2)c2cc(C3CC3)ccc21 [Example I-197, 2-(5-Cyclopropyl-1-methyl-1H-indazol-3-yl)-5H-pyrrolo[2,3-b]pyrazine-7-carboxylic acid tert-butylamide] | 0.00479
14 | Cn1nc(-c2cnc3[nH]cc(C(=O)NC(C)(C)c4ccccc4)c3n2)c2ccc(Cl)cc21 [Example I-388, 2-(6-Chloro-1-methyl-1H-indazol-3-yl)-5H-pyrrolo[2,3-b]pyrazine-7-carboxylic acid (1-methyl-1-phenyl-ethyl)-amide] | 0.0638

Results, then the compound that gave them:

Row | IC50 [µM] | Structure (SMILES)
15 | 0.00868 | CCC(C)(C)NC(=O)c1c[nH]c2ncc(-c3nn(C)c4cc(Cl)ccc34)nc12 [Example I-391, 2-(6-Chloro-1-methyl-1H-indazol-3-yl)-5H-pyrrolo[2,3-b]pyrazine-7-carboxylic acid (1,1-dimethyl-propyl)-amide]
16 | 0.00395 | Cc1ccc2c(-c3cnc4[nH]cc(C(=O)NC5(C#N)CC5)c4n3)n[nH]c2c1 [Example I-437, 2-(6-Methyl-1H-indazol-3-yl)-5H-pyrrolo[2,3-b]pyrazine-7-carboxylic acid (1-cyano-cyclopropyl)-amide]
17 | 0.0954 | CC(C)(C)NC(=O)c1c[nH]c2ncc(-c3n[nH]c4cc(F)ccc34)nc12 [Example I-411, 2-(6-Fluoro-1H-indazol-3-yl)-5H-pyrrolo[2,3-b]pyrazine-7-carboxylic acid tert-butylamide]
18 | 0.183 | C[C@H](NC(=O)c1c[nH]c2ncc(-c3nn(C)c4cc(Cl)ccc34)nc12)c1ccccc1 [Example I-389, 2-(6-Chloro-1-methyl-1H-indazol-3-yl)-5H-pyrrolo[2,3-b]pyrazine-7 carboxylic acid ((S)-1-phenyl-ethyl)-amide]
19 | 0.0469 | Cn1nc(-c2cnc3[nH]cc(C(=O)NC(C)(C)C)c3n2)c2cc(OCCCC(C)(C)N)ccc21 [Example I-449, 2-(5-(4-Amino-4-methylpentyloxy)-1-methyl-1H-indazol-3-yl)-N-tert-butyl-5H-pyrrolo[3,2-b]pyrazine-7-carboxamide 2,2,2-trifluoroacetate]
20 | 0.0857 | CCNC(=O)c1c[nH]c2ncc(-c3nn(CCCN(C)C)c4ccc(OC(F)F)cc34)nc12 [Example I-453, 2-(5-(Difluoromethoxy)-1-(3-(dimethylamino)propyl)-1H-indazol-3-yl)-N-ethyl-5H-pyrrolo[3,2-b]pyrazine-7-carboxamide trifluoroacetate]
21 | 0.787 | Cn1nc(-c2cnc3[nH]cc(C(=O)N[C@]4(C)CC[C@H](N)CC4)c3n2)c2ccc(F)cc21 [Example I-417, 2-(6-Fluoro-1-methyl-1H-indazol-3-yl)-5H-pyrrolo[2,3-b]pyrazine-7-carboxylic acid (cis-4-amino-1-methyl-cyclohexyl)-amide]
22 | 0.00542 | Cn1nc(-c2cnc3[nH]cc(C(=O)NCC4(O)CNC4)c3n2)c2ccc(F)cc21 [Example I-463, 2-(6-Fluoro-1-methyl-1H-indazol-3-yl)-N-((3-hydroxyazetidin-3-yl)methyl)-5H-pyrrolo[3,2-b]pyrazine-7-carboxamide trifluoroacetate]
23 | 0.0069 | C[C@@H](CO)NC(=O)c1c[nH]c2ncc(-c3n[nH]c4cc(Cl)ccc34)nc12 [Example I-419, 2-(6-Chloro-1H-indazol-3-yl)-5H-pyrrolo[2,3-b]pyrazine-7-carboxylic acid ((S)-2-hydroxy-1-methyl-ethyl)-amide]
